The text below walks through data of US20250118779A1, “BIPOLAR PARAMETHOXYPHENYL CONTAINING REDOX MOLECULES” (ExxonMobil Technology and Engineering Company, priority 2023, published 2025).

SMILES strings stand for the structures. ≈ marks a conversion by molar mass, not a printed value.

By solubility is commonly meant the concentration that dissolves in the medium under given conditions.

The first data set in a line: Cyclic voltammetry screening (3-electrode beaker cell). The class given is physicochemical. As to conditions: 5 mM redox species, 0.1 M TBAPF6 in acetonitrile, 100 mV/s; Ag|10 mM AgNO3 reference.
`C(=C\c1ccccc1)/c1ccccc1` [trans-stilbene, reference compound]: the “E1/2^0 (half-cell potential, arithmetic average of anode and cathode peaks)” value was −2.571 V vs Ag|Ag^+.

In the case of `Cc1cccc2ccccc12` [1-methylnaphthalene, reference compound], the “E1/2^0 (half-cell potential, arithmetic average of anode and cathode peaks)” value was −2.909 V vs Ag|Ag^+.

In the case of `c1ccc(-c2ccccc2)cc1` [biphenyl, reference compound], the “E1/2^0 (half-cell potential, arithmetic average of anode and cathode peaks)” value is on record as −2.987 V vs Ag|Ag^+.

Turning to `COc1ccc(OC)cc1` [p-dimethoxybenzene, reference compound], the “E1/2^0 (half-cell potential, arithmetic average of anode and cathode peaks)” value is reported as “+0.967 V vs Ag|Ag^+”.

The data set is the same for the next values; noted with them: 5 mM, 0.1 M TBAPF6 in acetonitrile, 100 mV/s; vs Ag|10 mM AgNO3 in acetonitrile (−0.09 V vs Fc|Fc+).
As for `C(=C\c1ccccc1)/c1ccccc1` [trans-stilbene, reference compound], the “redox potential, E1/2” value is reported as −2.571 V.

Turning to `Cc1cccc2ccccc12` [1-methylnaphthalene, reference compound], the “redox potential, E1/2” value is −2.909 V.

On to `c1ccc(-c2ccccc2)cc1` [biphenyl, reference compound], for which the “redox potential, E1/2” value is −2.987 V.

For `COc1ccc(OC)cc1` [p-dimethoxybenzene, reference compound], the “redox potential, E1/2” value is listed as “+0.967 V”.

Staying with this data set, now noted: bipolar compound 5 mM, 0.1 M TBAPF6 in acetonitrile.
Regarding `COc1ccc(OCCc2ccc(/C=C/c3ccccc3)cc2)cc1` [Entry 6], the “Ecell^0 (cell voltage)” value is 3.73 V.

As for `COc1ccc(OCCc2ccccc2-c2ccccc2)cc1` [Entry 4], the “Ecell^0 (cell voltage)” value was 3.82 V.

Turning to `COc1ccc(OCCc2cccc(-c3ccccc3)c2)cc1` [Entry 3], the “Ecell^0 (cell voltage)” value was 3.93 V.

Turning to `COc1ccc(OCCc2cccc3ccccc23)cc1` [Entry 1], the “Ecell^0 (cell voltage)” value is listed as 3.82 V.

Staying with this data set, now noted: bipolar compound 5 mM, 0.1 M TBAPF6 in acetonitrile; vs Ag|10 mM AgNO3.
As for `COc1ccc(OCCc2ccc(/C=C/c3ccccc3)cc2)cc1` [Entry 6], the “E^1/2, anolyte (negative) redox event” value is given as −2.632 V and the “E^1/2, catholyte (positive) redox event” value is reported as “+1.096 V”.

With `COc1ccc(CCOc2ccc(/C=C/c3ccccc3)cc2)cc1` [Entry 7], the “E^1/2, anolyte (negative) redox event” value is −2.665 V.

For `COc1ccc(OCCc2ccccc2-c2ccccc2)cc1` [Entry 4], the “E^1/2, anolyte (negative) redox event” value was −1.217 V and the “E^1/2, catholyte (positive) redox event” value is recorded as “+0.934 V”.

As to `COc1ccc(OCCc2cccc(-c3ccccc3)c2)cc1` [Entry 3], the “E^1/2, anolyte (negative) redox event” value is on record as −2.976 V and the “E^1/2, catholyte (positive) redox event” value is reported as “+0.953 V”.

For the compound `COc1ccc(OCc2cccc3ccccc23)cc1` [Entry 2], the “E^1/2, catholyte (positive) redox event” value is reported as “+0.981 V”.

Consider `COc1ccc(OCCc2cccc3ccccc23)cc1` [Entry 1], for which the “E^1/2, anolyte (negative) redox event” value is −2.857 V and the “E^1/2, catholyte (positive) redox event” value is recorded as “+0.958 V”.

`COc1ccc(OCc2ccccc2-c2ccccc2)cc1` [Entry 5]: the “E^1/2, catholyte (positive) redox event” value is listed as “+0.985 V”.

The same data set, now with this note: cyclic voltammogram, 5 mM, 0.1 M TBAPF6 in acetonitrile.
Take `COc1ccc(CCOc2ccc(/C=C/c3ccccc3)cc2)cc1` [Entry 7]: the “Redox activity of the bipolar molecule (in words)” value (“Redox activity” for short) is on record as “non-redox active molecule”.

For `COc1ccc(OCc2cccc3ccccc23)cc1` [Entry 2], the “Redox activity” value is recorded as “non-redox active molecule”.

Take `COc1ccc(OCc2ccccc2-c2ccccc2)cc1` [Entry 5]: the “Redox activity” value is “non-redox active molecule”.

A short description of a further data set: Room temperature solubility in acetonitrile. Format: physicochemical. As to conditions: acetonitrile solvent, moles per liter of solution.
On to `Cc1cccc2ccccc12` [1-methylnaphthalene, reference compound], for which the MeCN solubility entry is on record as “miscible”.

The data set is the same for the next values; noted with them: organic solvent or mixture, moles per liter of solution, read-out: MeCN solubility.
As to `C(=C\c1ccccc1)/c1ccccc1` [trans-stilbene, reference compound], the solubility is 1070 mM (≈ 193 mg/mL).

With `c1ccc(-c2ccccc2)cc1` [biphenyl, reference compound], the solubility was 1730 mM (≈ 267 mg/mL).

As to `COc1ccc(OC)cc1` [p-dimethoxybenzene, reference compound], the solubility was 600 mM (≈ 82.9 mg/mL).
